# Results published in US9725460B2, “Oridonin analogs, compositions, and methods related thereto” (THE BOARD OF REGENTS OF THE UNIVERSITY OF TEXAS SYSTEM, priority 2013, dated 2017).
# Read-outs that look alike come from different tables or passages of the source.
# Tests used:
# [1] = test system: MDA-MB-231; experiment: MTT cancer cell proliferation assay, MDA-MB-231; assay type: cell-based, human; conditions: Homo sapiens
# Summary of the method: (§1)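 Cells seeded at 1×10^4/well and exposed 48 h to 0.01-100 μM compound (0.01, 0.1, 1, 5, 10, 100 μM) or DMSO. MTT added for a further 4 h, formazan dissolved in DMSO and OD read at 550 nm; quadruplicate wells per concentration. MCF-7 is ER-positive; MDA-MB-231 ER-negative, triple-negative.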
# [2] = test system: AsPC1; experiment: Cancer cell proliferation assay, AsPC1; assay type: cell-based; conditions: Homo sapiens, ASPC1; Table 2a; A-ring modified analogues; read-out: IC50 (μM) AsPC1
# Experimental: (§2) In Vitro Determination of Effects of Synthesized Diterpenoids on Cancer Cell Proliferation. […] Then MTT solution was removed, and 150 μL of DMSO was added to each well. Absorbance of all wells was determined by measuring OD at 550 nm after a 10 min incubation on a 96-well GlowMaxate absorbance reader (Promega, Madison, Wis.). Each individual compound was tested in quadruplicate wells for each concentration.
# [3] = test system: breast, pancreatic, and prostate cancer cell lines; experiment: Anti-proliferation effects against cancer cell lines; assay type: cell-based, human; conditions: summary of Tables 1 and 2
# Experimental: In Vitro Determination of Effects of Synthesized Diterpenoids on Cancer Cell Proliferation. Breast cancer cell lines MCF-7, MDA-MB-231, […] and MCF/ADR were seeded in 96-well plates at a density of 1×10^4 cells/well and treated with DMSO and 0.01, 0.1, 1, 5, 10, and 100 μM of individual compound for 48 h, and then 20 μL of 3-(4,5-dimethylthiazol-2-yl)-2,5-diphenyltetrazolium bromide (MTT) (5 mg/mL in PBS) was added to each well and further incubated for another 4 h. Then MTT solution was removed, and 150 μL of DMSO was added to each well. Absorbance of all wells was determined by measuring OD at 550 nm after a 10 min incubation on a 96-well GlowMaxate absorbance reader (Promega, Madison, Wis.). Each individual compound was tested in quadruplicate wells for each concentration.
# [4] = test system: Panc-1; experiment: Cancer cell proliferation assay, Panc-1; assay type: cell-based; conditions: Homo sapiens, PANC-1; Table 2a; A-ring modified analogues; read-out: IC50 (μM) Panc-1
# Experimental: as §2
# [5] = test system: MCF-7; experiment: MTT cancer cell proliferation assay, MCF-7; assay type: cell-based, human; conditions: Homo sapiens
# Summary of the method: as §1
# [6] = test system: MCF-7/ADR; experiment: MTT growth inhibition, drug-resistant MCF-7/ADR; assay type: cell-based; conditions: Homo sapiens, NCI/ADR-RES, 24 h, Table 1d; drug-resistant breast cancer cells; mean ± SE of three experiments
# [7] = MDA-MB-231, Table 1c, dienone analogues, mean ± SE of three experiments, read-out: Antiproliferative effect MDA-MB-231 (IC50)
# [8] = MDA-MB-231, Table 2a, A-ring modified analogues, read-out: IC50 (μM) MDA-MB-231
# [9] = MCF7, Table 1c, dienone analogues, mean ± SE of three experiments, read-out: Antiproliferative effect MCF-7 (IC50)
# [10] = MCF7, Table 2a, A-ring modified analogues, read-out: IC50 (μM) MCF-7
"IC50 [1, 7]","IC50 [1, 8]",IC50 [2],"IC50 values, anti-proliferation effects against cancer cell lines [3]",IC50 [4],"IC50 [5, 9]","IC50 [5, 10]",IC50 [6],Structure (SMILES)
3.46 ± 1.33 µM,6.09 µM,3.57 µM,low micromolar to nanomolar,5.35 µM,1.28 ± 0.47 µM,1.46 µM,6.55 ± 0.96 µM,"C=C1C(=O)[C@@]23[C@@H]4OC(C)(C)OC25OC[C@]2(C(=O)C(C=O)=CC(C)(C)[C@H]2[C@@H]5O)[C@@H]3CC[C@@H]14 [CYD-6-92, (3S,3aR,3a^1R,6aR,7S,7aR,11aS,11bS)-7-hydroxy-5,5,8,8-tetramethyl-15-methylene-11,14-dioxo-2,3,3a,7,7a,8,11,11b-octahydro-1H-6a,11a-(epoxymethano)-3,3a^1-ethanophenanthro[1,10-de][1,3]dioxine-10-carbaldehyde]"
2.23 ± 0.68 µM,3.56 µM,2.99 µM,–,> 10 µM,1.31 ± 0.25 µM,0.95 µM,5.82 ± 2.12 µM,"C=C1C(=O)[C@]23[C@H](O)[C@H]1CC[C@H]2[C@@]12CO[C@]3(O)[C@@H](O)[C@@H]1C(C)(C)C=CC2=O [CYD-6-58, (4aR,5S,6S,6aR,9S,11aS,11bS,14R)-5,6,14-trihydroxy-4,4-dimethyl-8-methylene-4,4a,5,6,9,10,11,11a-octahydro-1H-6,11b-(epoxymethano)-6a,9-methanocyclohepta[a]naphthalene-1,7(8H)-dione]"
3.49 ± 1.21 µM,5.6 µM,8.82 µM,–,7.93 µM,0.56 ± 0.31 µM,1.1 µM,5.03 ± 1.91 µM,"C=C1C(=O)[C@@]23[C@@H]4OC(C)(C)OC25OC[C@]2(C(=O)C=CC(C)(C)[C@H]2[C@@H]5O)[C@@H]3CC[C@@H]14 [CYD-6-25, (3S,3aR,3a^1R,6aR,7S,7aR,11aS,11bS)-7-hydroxy-5,5,8,8-tetramethyl-15-methylene-3,3a,7,7a,8,11b-hexahydro-1H-6a,11a-(epoxymethano)-3,3a^1-ethanophenanthro[1,10-de][1,3]dioxine-11,14(2H)-dione]"
